In publication PMC7146870, “VanZ Reduces the Binding of Lipoglycopeptide Antibiotics to Staphylococcus aureus and Streptococcus pneumoniae Cells” (Frontiers in Microbiology, 2020):
Values after ≈ are worked out from the molar mass of the structure shown. Like-named read-outs stand apart in the source and are kept apart here.

How the values were obtained:
[1] = test system: S. aureus RN4220 pRMC2:vanZTei; test: MIC, broth microdilution, strain expressing vanZTei; assay type: cell-based, Staphylococcus aureus; conditions: for decrease of susceptibility of S. aureus by expression of vanZTei: MIC of RN4220 vanZTei versus RN4220 pRMC2; for MIC: S. aureus RN4220 vanZTei, broth microdilution, ISO 20776-1, 25 μg/ml chloramphenicol and 100 ng/ml AnhTet, twice in triplicate
From the text: (§1) The vanZTei and vanZg genes and their ribosome binding sites were amplified from the plasmid pAT398 ([Arthur et al., 1995]) and E. faecium Aus0004 chromosomal DNA, respectively, using the primers TecVanZ_SacI_F, TecVanZ_R, gVanZ_SacI_F, and gVanZ_R (Supplementary Table S1). The PCR products were cloned into the pRMC2 shuttle vector under the control of the anhydrotetracycline (AnhTet)-inducible promoter Pxyl/tetO using SacI and EcoRI restriction sites, resulting in the constructs pRMC2:vanZTei and pRMC2:vanZg. The constructs were confirmed by sequencing and then electroporated into S. aureus RN4220. Using the same procedure, we prepared the constructs pRMC2:vanZTei-His and pRMC2:vanZg-His encoding C-terminal His-tagged VanZ variants. However, primers TecVanZhis_R and gVanZhis_R replaced the reverse primers TecVanZ_R and gVanZ_R.
(§2) Minimal Inhibitory Concentrations were measured by the broth microdilution method according to ISO standard 20776-1 (EUCAST 2019). S. aureus strains with pRMC2, pRMC2:vanZTei and pRMC2:vanZg plasmids were cultured in the presence of 25 μg/ml chloramphenicol and 100 ng/ml AnhTet (Sigma-Aldrich, Germany) to induce vanZ gene expression. All measurements were performed twice in triplicate. S. aureus ATCC29213 was used as a control. MIC values of clinically accepted glycopeptide antibiotics were interpreted according to EUCAST clinical breakpoints (EUCAST, 2019).

S. aureus ATCC29213 = test: MIC, broth microdilution, control strain; assay type: cell-based, Staphylococcus aureus; conditions: ISO 20776-1 (EUCAST 2019), performed twice in triplicate
Procedure: as §2

S. pneumoniae R6 = test: MIC, broth microdilution, wild type; assay type: cell-based, Streptococcus pneumoniae; conditions: ISO 20776-1, twice in triplicate
Procedure: as §2

[2] = test system: S. pneumoniae R6 ΔvanZ:vanZ; test: MIC, broth microdilution, vanZ-reverted strain; assay type: cell-based, Streptococcus pneumoniae
From the text: (§3) Strain Sp539 (ΔvanZ) was constructed using a Sweet Janus cassette-based two-step negative selection strategy ([Sung et al., 2001]; [Li et al., 2014]). The Sweet Janus cassette contains the kanamycin resistance gene, the recessive rpsL gene and the sacB gene, which confers sucrose sensitivity (Su^S), as counterselectable markers. In the first step, 1000 bp fragments corresponding to the upstream and downstream flanking regions of the vanZ gene (spr0050) were amplified from the wild-type chromosomal DNA with the primer pairs KB60/KB61 and KB62/KB63, respectively. The Sweet Janus cassette (2807 bp) amplified from the Sweet Janus cassette DNA fragment with the primers DP1/DP2 was attached to the regions flanking vanZ by fusion PCR using primers KB60 and KB63. The resulting PCR fragment was used for the transformation of the S. pneumoniae R6 strain, and Kan^R/Su^S transformants (Sp537, vanZ:kan sacB) were selected. The PCR fragments consisting of the upstream and downstream flanking regions of the vanZ gene were amplified by the KB60/KB65 and KB64/KB63 primer pairs, respectively, and fused by overlap extension using primers KB60/KB63. The resulting fragment was transformed into the Sp537 strain to obtain Sp539 (Su^R/Kan^S). To complement the vanZ deletion, we constructed strain Sp635 (Su^R/Kan^S; ΔvanZ:vanZ) by transforming strain Sp537 (Kan^R/Su^S) with the PCR fragment amplified with the primers KB60 and KB63 that contained wild-type loci using R6 chromosomal DNA as a template.
as §2

[3] = test system: S. aureus RN4220 pRMC2:vanZg; test: MIC, broth microdilution, strain expressing vanZg; assay type: cell-based, Staphylococcus aureus; conditions: for decrease of susceptibility of S. aureus by expression of vanZg: MIC of RN4220 vanZg versus RN4220 pRMC2; for MIC: S. aureus RN4220 vanZg, broth microdilution, ISO 20776-1, 25 μg/ml chloramphenicol and 100 ng/ml AnhTet, twice in triplicate
From the text: as §1, §2

S. pneumoniae R6 ΔvanZ = test: MIC, broth microdilution, vanZ knockout; assay type: cell-based, Streptococcus pneumoniae
From the text: as §3, §2

S. aureus RN4220 pRMC2 = test: MIC, broth microdilution, empty vector strain; assay type: cell-based, Staphylococcus aureus; conditions: ISO 20776-1, 25 μg/ml chloramphenicol and 100 ng/ml AnhTet, twice in triplicate
From the text: as §1, §2

[4] = S. pneumoniae R6 ΔvanZ:vanZ (complemented), broth microdilution, ISO 20776-1, twice in triplicate
[5] = S. pneumoniae R6 ΔvanZ, broth microdilution, ISO 20776-1, twice in triplicate
[6] = Staphylococcus aureus, read-out: MIC
[7] = Staphylococcus aureus, ATCC29213, S. aureus ATCC 29213 (control), read-out: MIC
[8] = Streptococcus pneumoniae, read-out: MIC
[9] = Staphylococcus aureus, RN4220PRMC2, S. aureus RN4220 pRMC2 (no VanZ), read-out: MIC
[10] = S. aureus RN4220 pRMC2 (no VanZ)

Row | Molecule | decrease of susceptibility of S. aureus by expression of vanZTei [1] | MIC (S. aureus ATCC29213; S. aureus ATCC 29213 (control)) [mg/L] | MIC (S. pneumoniae R6) [mg/L] | MIC [2, 4] [mg/L] | decrease of susceptibility of S. aureus by expression of vanZg [3] | MIC [3] [mg/L] | MIC (S. pneumoniae R6 ΔvanZ; [5]) [mg/L] | MIC [1, 6] [mg/L] | MIC (S. aureus ATCC29213; [7]) [mg/L] | MIC (S. pneumoniae R6; [8]) [mg/L] | MIC ([2]; Streptococcus pneumoniae) [mg/L] | MIC (S. aureus RN4220 pRMC2; [9]) [mg/L] | MIC [3, 6] [mg/L] | MIC (S. pneumoniae R6 ΔvanZ; Streptococcus pneumoniae) [mg/L] | MIC [1] [mg/L] | MIC (S. aureus RN4220 pRMC2; [10]) [mg/L] | sensitivity of the ΔvanZ mutant compared with the wild-type strain (S. pneumoniae R6 ΔvanZ; MIC of S. pneumoniae R6 ΔvanZ versus R6)
1 | oritavancin | less or no activity | 0.125 | 0.0078 | 0.0078 | two times | 0.25 | 0.0039 |  |  |  |  |  |  |  |  |  | 
2 | dalbavancin | less or no activity | 0.125 | 0.03125 |  | four-fold | 0.5 | 0.0078 |  |  |  |  |  |  |  |  |  | 
3 | CNC(C)C1CCC(N)C(OC2C(N)CC(N)C(OC3OCC(C)(O)C(NC)C3O)C2O)O1 (centres unmarked) [GEN, gentamicin] |  |  |  |  |  |  |  | 1 (≈ 2.09 µM) | 1 (≈ 2.09 µM) | 0.25 (≈ 0.523 µM) | 0.25 (≈ 0.523 µM) | 1 (≈ 2.09 µM) | 1 (≈ 2.09 µM) | 0.25 (≈ 0.523 µM) |  |  | 
4 | CC1(C)S[C@@H]2[C@H](NC(=O)C(C(=O)O)c3ccccc3)C(=O)N2[C@H]1C(=O)O (some centres unmarked) [CARB, carbenicillin] |  |  |  |  |  |  |  | 0.25 (≈ 0.661 µM) | 0.25 (≈ 0.661 µM) | 0.0625 (≈ 0.165 µM) | 0.0625 (≈ 0.165 µM) | 0.25 (≈ 0.661 µM) | 0.25 (≈ 0.661 µM) | 0.0625 (≈ 0.165 µM) |  |  | 
5 | teicoplanin | less or no activity | 0.125 | 0.125 |  | 16 fold | 8 | 0.03125 |  |  |  |  |  |  |  | 1 | 0.5 | 
6 | vancomycin |  | 0.25 | 0.25 | 0.25 |  | 1 | 0.25 |  |  |  |  |  |  |  | 0.5 | 0.5 | not
7 | CC[C@H]1OC(=O)[C@H](C)[C@@H](O[C@H]2C[C@@](C)(OC)[C@@H](O)[C@H](C)O2)[C@H](C)[C@@H](O[C@@H]2O[C@H](C)C[C@H](N(C)C)[C@H]2O)[C@](C)(O)C[C@@H](C)C(=O)[C@H](C)[C@@H](O)[C@]1(C)O [ERY, erythromycin] |  |  |  |  |  |  |  | 0.125 (≈ 0.17 µM) | 0.125 (≈ 0.17 µM) | 0.125 (≈ 0.17 µM) | 0.125 (≈ 0.17 µM) | 0.125 (≈ 0.17 µM) | 0.125 (≈ 0.17 µM) | 0.125 (≈ 0.17 µM) |  |  | 
